Test system: stationary phase MRSA ATCC 33591
Test: Bacterial killing kinetics, stationary phase cells in nutrient-depleted MHB medium
Type: cell-based, Staphylococcus aureus
Conditions: 24 h
Description: The kinetics of bacterial killing was determined against MRSA ATCC 33591 strain using drop plate method as described previously with slight modifications[51],[67],[70],[71]. The experiment was performed against exponential phase MRSA in normal medium and stationary phase MRSA in nutrient-depleted medium. For the preparation of nutrient-depleted medium, the primary MRSA ATCC 33591 culture in MHB medium was allowed to grow for 18 h at 37 °C and the cells were removed by centrifugation. The cell pellet was used for stationary phase culture and the spent medium supernatant was used as a nutrient-depleted medium. For obtaining exponential phase cells, MRSA was grown overnight in MHB and 100 μL suspension was used to inoculate 10 mL fresh MHB medium. The cells were incubated at 37 °C for 4–6 h to reach exponential phase.
For the experiments, both exponential and stationary phase cells were re-suspended separately in normal or nutrient-depleted mediums to OD600 = 0.5 (~10^8 CFU/mL). A 25 µL aliquot of this suspension was added to 475 μL of respective medium with or without test peptidomimetics/antibiotics in an eppendorf tube. […] The agar plates were incubated at 37 °C for 16–18 h and the colonies were counted (dilutions having colonies in the range of 10–100 were counted). […]

SMILES: CN[C@H](CC(C)C)C(=O)N[C@H]1C(=O)N[C@@H](CC(N)=O)C(=O)N[C@H]2C(=O)N[C@H]3C(=O)N[C@H](C(=O)N[C@H](C(=O)O)c4cc(O)cc(O)c4-c4cc3ccc4O)[C@H](O)c3ccc(c(Cl)c3)Oc3cc2cc(c3O[C@@H]2O[C@H](CO)[C@@H](O)[C@H](O)[C@H]2O[C@H]2C[C@](C)(N)[C@H](O)[C@H](C)O2)Oc2ccc(cc2Cl)[C@H]1O [VAN, vancomycin]
- log reduction in CFU/mL (4 × MIC): ~ 1.1 log
- log reduction in CFU/mL (10 × MIC): ~ 1.1 log
